The source of these data is patent US20140057877A1, “Therapeutic polyamine compositions and their synthesis” (priority 2002, published 2014).

One may read the pKa as the pH at which an ionisable group is half protonated.

Where “and” joins values, the source holds several entries; their conditions need not be identical. Identical values can stand only once. Like-named read-outs stand apart in the source and are kept apart here.

Data set [1] has as its system E. coli (GM 7359) alkA tag E. coli mutant. In words: Bacterial survival, toxin streptozotocin and antidotes. Particulars: 60 minutes.
Procedure: (§2) Bacteria were inoculated and cultured in nutrient agar for eighteen hours, using a shaking incubator at 140 r.p.m and 35° C. Medium contained 10 mM HEPES buffer at pH 7. Cells were centrifuged twice in Sorval RC-5 centrifuge 12,000 r.pm.×15 minutes at 4° C. and washed twice in 10 uM HEPES buffer. The resuspended cells were counted using a Hemocrit and diluted to a level of 5×10^1 cells per ml in 10 μM HEPES. The cells, the following toxins; methyl viologen (paraquat), methyl viologen (MPP^+), rotenone, daizoxide, streptozotocin and alloxan, and antidotes were added, reaching final volumes of 1 ml in Eppendorf tubes and placed on a rotator at room temperature. 10 μM diethylenetriaminepentaacetic acid was added to the samples to terminate the reactions at the specified times of either twenty or sixty minutes. 300 μL of cells were plated on Petri plates containing nutrient agar and incubated at 35° C. overnight. Colonies were counted after 20 hours. Percentage survival as compared with culture controls is calculated from the means of triplicates in each experimental group.
For the next data set, the system named is M. Luteus (ATCC 499732). In words: Bacterial survival, toxin diazoxide and antidotes.
The subject of data set [2] is S. aureus (ATCC 29213). In words: Bacterial survival, toxin diazoxide and antidotes. The data set is classed as cell-based. Particulars: 60 minutes. On the procedure:
(§1) Medium contained 10 mM HEPES buffer at pH 7. […] Colonies were counted after 20 hours.

Data set [3] has as its system S. aureus (ATCC 29213). In words: Bacterial survival, toxin MPP^+ and antidotes. Particulars: 60 minutes.
Procedure: as §2
Data set [4] concerns E. coli (GM 7359) alkA tag E. coli mutant. Particulars: 60 minutes.
Procedure: as §2
Data set [5] can be described thus: pKa by potentiometric titration. It counts as physicochemical. Particulars: aqueous solution, ionic strength 0.10, 25° C. As to the method: PKa's were determined by standard potentiometric titration methods in aqueous solution with an ionic strength of 0.10 at 25° C. Values are reported as log K values of the equilibrium constant.
A further data set relates to E. coli (ATCC 35150). It counts as cell-based. As to the method: as §1
For data set [6], the system named is E. coli (GM 7359) alkA tag E. coli mutant. Particulars: 60 minutes. The source holds these as a separate data set.
Procedure: as §2
Setting [7] is: 100 uM Streptozotocin + 5 uM antidote.
[8] abbreviates: 0.2 mM Diazoxide + 1 uM antidote, T20.
The mark [9] stands for this setting: 0.2 mM Diazoxide + 1 uM antidote, T60.
[10] abbreviates: 0.2 mM Diazoxide + 2.5 uM antidote, T20.
The mark [11] stands for this setting: 0.2 mM Diazoxide + 2.5 uM antidote, T60.
The mark [12] stands for this setting: substance alone 200 uM, T20 (20 minutes).
[13] abbreviates: substance alone 200 uM, T60 (60 minutes).
[14] abbreviates: 0.15 mM Diazoxide + 5 uM antidote.
Where [15] appears, read: 0.2 mM Diazoxide + 5 uM antidote, T60.
Where [16] appears, read: 0.2 mM Diazoxide + 10 uM antidote, T60.
The mark [17] stands for this setting: 0.2 mM Diazoxide + 200 uM antidote, T60.

Procedure for M. Luteus (ATCC 499732): as §2

`NCCCCNCCCN` [Spermidine, reference compound]: the “Mean % Survival” value in data set [1] (setting [7]) is given as 87%; in data set [1] (substance alone 5 uM), 97%; in the data set with M. Luteus (ATCC 499732) (setting [8]), 100%; in the data set with M. Luteus (ATCC 499732) (setting [9]), 96%; with M. Luteus (ATCC 499732) (setting [10]), 100%; with M. Luteus (ATCC 499732) (setting [11]) it was 100%. The “Mean % Survival” value with M. Luteus (ATCC 499732) (0.2 mM Diazoxide + 200 uM antidote, T20) came out at 100%; in the data set with M. Luteus (ATCC 499732) (setting [12]), 100%; in the data set with M. Luteus (ATCC 499732) (setting [13]), 100%.

With “(2-piperidylethyl)-{3-[(2-piperidylethyl)amino]propyl}amine [2,3,2-piperidine]”, the “Mean % Survival” value in the data set with S. aureus (ATCC 29213) [2] (0.15 mM Diazoxide + 2.5 uM antidote) is reported as 100%; in the data set on S. aureus (ATCC 29213) [2] (setting [14]), 91%; with S. aureus (ATCC 29213) [2] (0.15 mM Diazoxide + 10 uM antidote) it was 92%; in the data set on S. aureus (ATCC 29213) [2] (substance alone 10 uM), 100%; with S. aureus (ATCC 29213) [3] (0.25 mM MPP^+ + 1uM antidote) it was 54%; with S. aureus (ATCC 29213) [3] (0.25 mM MPP^+ + 2uM antidote) it was 54%. Also, the “Mean % Survival” value with S. aureus (ATCC 29213) [3] (0.25 mM MPP^+ + 5uM antidote) was 69%; in the data set with S. aureus (ATCC 29213) [3] (0.25 mM MPP^+ + 7uM antidote) it was 100%; in the data set with S. aureus (ATCC 29213) [3] (substance alone 7.5 uM), 100%; in data set [4] (100 uM Rotenone + 2.5 uM antidote), 100%; in data set [4] (100 uM Rotenone + 5 uM antidote) it was 100%; in data set [4] (100 uM Rotenone + 20 uM antidote), 100%. Also, the “Mean % Survival” value amounted to 100% in data set [4] (100 uM Rotenone + 50 uM antidote); 100% in data set [4] (substance alone 50 uM); 70% in data set [1] (100 uM Streptozotocin + 2.5 uM antidote); 100% in data set [1] (setting [7]); 100% in data set [1] (100 uM Streptozotocin + 20 uM antidote); 100% in data set [1] (substance alone 20 uM). The “Mean % Survival” value in the data set on M. Luteus (ATCC 499732) (setting [8]) amounted to 81%; in the data set on M. Luteus (ATCC 499732) (setting [10]), 81%; with M. Luteus (ATCC 499732) (setting [11]) it was 41%; in the data set on M. Luteus (ATCC 499732) (0.2 mM Diazoxide + 5 uM antidote, T20) it was 100%; in the data set with M. Luteus (ATCC 499732) (setting [15]), 100%; with M. Luteus (ATCC 499732) (0.2 mM Diazoxide + 10 uM antidote, T20), 100%. In addition, the “Mean % Survival” value in the data set on M. Luteus (ATCC 499732) (setting [16]) is 100%; in the data set with M. Luteus (ATCC 499732) (0.2 mM Diazoxide + 20 uM antidote, T20), 100%; in the data set with M. Luteus (ATCC 499732) (0.2 mM Diazoxide + 20 uM antidote, T60), 100%; in the data set with M. Luteus (ATCC 499732) (0.2 mM Diazoxide + 50 uM antidote, T20), 100%; in the data set on M. Luteus (ATCC 499732) (substance alone 50 uM, T20 (20 minutes)), 100%; in the data set on M. Luteus (ATCC 499732) (substance alone 50 uM, T60 (60 minutes)) it was 100%. Besides, in data set [5], the “pKa(1)” value turned out to be 9.9. For the same molecule, the “pKa(2)” value in data set [5] came out at 9.3. Also, the “pKa(3)” value in data set [5] is 6.4. In addition, the “pKa(4)” value in data set [5] is 3.6.

`N[C@@H](Cc1c[nH]cn1)C(=O)O` [Histidine, reference compound]: the “Mean % Survival” value with S. aureus (ATCC 29213) [2] (0.15 mM Diazoxide + 500 uM antidote) is 58%; in the data set with S. aureus (ATCC 29213) [2] (substance alone 0.5 mM) it was 100%; with S. aureus (ATCC 29213) [3] (0.15 mM MPP^+ + 0.5 mM antidote), 64%; in the data set with S. aureus (ATCC 29213) [3] (substance alone 0.5 mM) it was 90%; in the data set on M. Luteus (ATCC 499732) (setting [17]), 54%; with M. Luteus (ATCC 499732) (setting [12]) it was 100%. Also, the “Mean % Survival” value is 100% in the data set on M. Luteus (ATCC 499732) (setting [13]); 30% with E. coli (ATCC 35150); 37% in the data set with E. coli (ATCC 35150) (0.5 mM Paraquat + 1.0 mM antidote, 60 minutes); 100% with E. coli (ATCC 35150) (substance alone 0.5 mM, 60 minutes); 100% in the data set on E. coli (ATCC 35150) (substance alone 1 mM, 60 minutes).

For the molecule `CN(N=O)C(=O)N[C@H]1C(O)O[C@H](CO)[C@@H](O)[C@@H]1O` (some centres unmarked) [Streptozotocin, N-(methylnitrosocarbamoyl)-Dglucosamine, reference compound], the “Mean % Survival” value in data set [1] (substance alone 100 uM) is 57%.

For `C[n+]1ccc(-c2ccccc2)cc1` [MPP^+, reference compound], the “Mean % Survival” value in the data set on S. aureus (ATCC 29213) [3] (substance alone 0.1 mM) was 31%; in the data set on S. aureus (ATCC 29213) [3] (substance alone 0.15 mM) it was 15%; with S. aureus (ATCC 29213) [3] (substance alone 0.2 mM), 6%; in the data set with S. aureus (ATCC 29213) [3] (substance alone 0.25 mM) it was 3%.

Consider “[2-(bicyclo[3.3.1]non-3-ylamino)ethyl](3-{2-(bicyclo[3.3.1]non-3-ylamino)ethyl]amino}propyl)amine [2,3,2-tetramine adamantane]”, for which the “Mean % Survival” value in data set [6] (2 mM Alloxan + 1 uM antidote) is reported as 51%; in data set [6] (2 mM Alloxan + 100 uM antidote), 69%; in data set [6] (substance alone 100 uM) it was 100%.

Turning to `CC1=NS(=O)(=O)c2cc(Cl)ccc2N1` [Diazoxide, reference compound], the “Mean % Survival” value in the data set with S. aureus (ATCC 29213) [2] (substance alone 0.15 mM) is 25%; with M. Luteus (ATCC 499732) (substance alone 0.2 mM, T20 (20 minutes)) it was 22%; in the data set on M. Luteus (ATCC 499732) (substance alone 0.2 mM, T60 (60 minutes)), 1%.

With `NCCCNCCCCNCCCN` [Spermine], the “Mean % Survival” value with S. aureus (ATCC 29213) [2] (setting [14]) was 71%; in the data set on S. aureus (ATCC 29213) [2] (substance alone 5 uM), 99%; in the data set with E. coli (ATCC 35150), 100% and 96% and 60%.

Consider `NCCSCCCSCCN` [2,3,2-sulfur, 2-[3-(2-aminoethylthio)propylthio]ethylamine], for which the “Mean % Survival” value in the data set with M. Luteus (ATCC 499732) (0.2 mM Diazoxide + 12.5 uM antidote, T60) was determined as 32%; with M. Luteus (ATCC 499732) (0.2 mM Diazoxide + 100 uM antidote, T60), 67%; in the data set with M. Luteus (ATCC 499732) (substance alone 100 uM, T20 (20 minutes)), 100%; with M. Luteus (ATCC 499732) (substance alone 100 uM, T60 (60 minutes)) it was 100%.

As for `CNCCN(C)CCCN(C)CCNC` [2,3,2-tetramethyl, N,N′,N″,N′″-tetramethyl 2,3,2-tetramine], in data set [5], the “pKa(1)” value is 10.2, the “pKa(2)” value is given as 9.4, the “pKa(3)” value is on record as 6.1 and the “pKa(4)” value came out at 2.9.

For the molecule `O=C1NC(=O)C(=O)C(=O)N1` [Alloxan, reference compound], in data set [6] (substance alone 2 mM), the “Mean % Survival” value is reported as 20%.

Consider `CN1CCCN(C)CCN(C)CCCN(C)CC1` [cyclam-methylated, 1,4,8,11-tetraaza-1,4,8,11-tetramethylcyclotetradecane], for which the pKa in data set [5] (read-out: pKa(1)) came to 9.7; in data set [5] (read-out: pKa(2)), 9.3; in data set [5] (read-out: pKa(3)), 3.1; in data set [5] (read-out: pKa(4)) it was 2.6.

Take `C=C(C)[C@H]1Cc2c(ccc3c2O[C@@H]2COc4cc(OC)c(OC)cc4[C@@H]2C3=O)O1` [Rotenone, reference compound]: in data set [4] (substance alone 100 uM), the “Mean % Survival” value amounted to 60%.

Take “Vanadyl (1,4,8,11-tetraaza-1,4,8,11-tetrabicyclo[3.3.1]non-3-ylcyclotetradecane)(Cl)2 [Vanadium Cyclam Adamantane]”: the “Mean % Survival” value was found to be 100% with M. Luteus (ATCC 499732) (setting [9]); 100% in the data set with M. Luteus (ATCC 499732) (setting [15]); 100% in the data set with M. Luteus (ATCC 499732) (setting [16]); 100% in the data set with M. Luteus (ATCC 499732) (0.2 mM Diazoxide + 50 uM antidote, T60); 100% with M. Luteus (ATCC 499732) (setting [17]); 100% in the data set with M. Luteus (ATCC 499732) (setting [12]). For the same molecule, the “Mean % Survival” value in the data set with M. Luteus (ATCC 499732) (setting [13]) is 100%.
